How the values were obtained:
aromatase = molecular target: T1, aromatase (Homo sapiens, UniProt P11511); test: Aromatase inhibition assay in JEG-3 cells ([1β-3H] androstenedione, tritiated water release); type: cell-based; conditions: 1.25 hour incubation, duplicate
T1 construct: JEG-3 which constitutively expresses high amount of aromatase and steroid sulfatase; endogenous in cells; host or cells: JEG-3
T1 sequence (P11511 1-503): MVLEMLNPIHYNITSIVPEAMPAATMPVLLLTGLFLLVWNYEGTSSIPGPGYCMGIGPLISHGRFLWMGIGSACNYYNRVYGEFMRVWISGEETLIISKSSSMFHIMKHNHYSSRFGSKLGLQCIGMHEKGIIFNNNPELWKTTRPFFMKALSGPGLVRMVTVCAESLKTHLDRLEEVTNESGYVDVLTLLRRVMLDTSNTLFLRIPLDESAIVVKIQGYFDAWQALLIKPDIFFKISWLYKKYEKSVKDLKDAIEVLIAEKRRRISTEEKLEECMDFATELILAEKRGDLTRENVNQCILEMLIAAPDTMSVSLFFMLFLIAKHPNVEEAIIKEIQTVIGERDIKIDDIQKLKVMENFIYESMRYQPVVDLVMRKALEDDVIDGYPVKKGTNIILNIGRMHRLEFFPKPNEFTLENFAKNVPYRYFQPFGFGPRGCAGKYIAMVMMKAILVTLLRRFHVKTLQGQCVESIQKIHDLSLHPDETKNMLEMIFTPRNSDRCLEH
Description: (§1) Aromatase and steroid sulfatase enzymes inhibitions were evaluated in the human chorionic carcinoma cell line JEG-3 which constitutively expresses high amount of aromatase and steroid sulfatase.
For aromatase inhibition assay, JEG-3 cells were seeded into 96-well plates at 35,000 cells/well and maintained in MEM containing supplements. When reaching 80% confluent, the cells were washed once with serum-free MEM, incubated with [1β-^3H] androstenedione (A4, 0.2 μCi/ml) for 1.25 hour in the presence of the test substances added in a concentration series. The product, tritiated water (^3H2O), was separated using 2.5% (w/v) dextran-coated charcoal at 4-8° C. for 2 hours. The supernatant radioactivity was measured by a MicroBeta scintillation counter.
(§2) Experiments are performed in duplicate. The inhibitory concentration of 50% of the enzymatic activity is calculated.

steroid sulfatase = molecular target: T2, steroid sulfatase (Homo sapiens, UniProt P08842); test: Steroid sulfatase (STS) inhibition assay in JEG-3 cells ([6,7-3H] estrone sulfate); type: cell-based; conditions: 1 hour at 37° C., duplicate
T2 construct: JEG-3 which constitutively expresses high amount of aromatase and steroid sulfatase; endogenous in cells; host or cells: JEG-3
T2 sequence (P08842 22-583): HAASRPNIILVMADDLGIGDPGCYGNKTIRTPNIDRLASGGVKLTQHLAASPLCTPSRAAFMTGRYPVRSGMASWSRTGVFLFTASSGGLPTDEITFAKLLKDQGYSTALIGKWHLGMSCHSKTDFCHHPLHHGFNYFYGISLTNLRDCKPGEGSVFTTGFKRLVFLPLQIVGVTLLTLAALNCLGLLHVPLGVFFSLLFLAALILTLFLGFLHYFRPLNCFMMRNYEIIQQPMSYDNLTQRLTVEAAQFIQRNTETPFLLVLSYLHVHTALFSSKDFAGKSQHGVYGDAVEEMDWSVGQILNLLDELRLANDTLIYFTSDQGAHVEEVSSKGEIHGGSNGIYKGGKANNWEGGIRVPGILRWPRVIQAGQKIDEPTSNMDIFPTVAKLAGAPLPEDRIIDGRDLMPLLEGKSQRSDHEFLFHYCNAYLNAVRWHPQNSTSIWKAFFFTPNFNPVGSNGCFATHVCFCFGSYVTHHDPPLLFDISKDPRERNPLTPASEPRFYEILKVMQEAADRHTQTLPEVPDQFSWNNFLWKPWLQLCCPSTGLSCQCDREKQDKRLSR
Description: as §1
For STS assay, JEG-3 cells were seeded into 24-well culture plates at 150,000 cells/ml/well and maintained in MEM containing supplements overnight. When reaching 80% confluent, the cells were washed once with serum-free MEM, loaded with 1 ml of substrate mix containing [6,7-3H] Estrone sulfate (E1S, 0.6 μCi/ml) and [4-14C] Estrone (E1, 4 nCi/ml) in the presence of compounds in a concentration series, and incubated for 1 hour at 37° C. The product [3H]E1 was separated from E1S by toluene partition using [4-14C]E1 to monitor extraction procedural losses, and the toluene fraction radioactivity was measured by a MicroBeta scintillation counter.
as §2

SMILES | IC50 (aromatase) [nM] | IC50 (steroid sulfatase) [nM]
N#Cc1ncc(Cn2cnc3cc(F)c(F)cc32)cc1-c1ccc(OS(N)(=O)=O)cc1 [Example 51, 4-(2-Cyano-5-((5,6-difluoro-1H-benzo[d]imidazol-1-yl)methyl)pyridin-3-yl)phenyl sulfamate] | 2.2 | 15.5
N#Cc1ccc(Cn2cnc3cccnc32)cc1-c1ccc(OS(N)(=O)=O)cc1 [Example 12, 5′-((3H-Imidazo[4,5-b]pyridin-3-yl)methyl)-2′-cyano-[1,1′-biphenyl]-4-yl sulfamate] | 0.5 | 7
N#Cc1ccc(Cn2nnc3cccnc32)cc1-c1ccc(OS(N)(=O)=O)cc1 [Example 8, 5′-((3H-[1,2,3]Triazolo[4,5-b]pyridin-3-yl)methyl)-2′-cyano-[1,1′-biphenyl]-4-yl sulfamate] | 6.3 | 23.6
N#Cc1ccc(Cn2nnc3ccccc32)cc1-c1ccc(OS(N)(=O)=O)cc1 [Example 4, 5′-((1H-Benzo[d][1,2,3]triazol-1-yl)methyl)-2′-cyano-[1,1′-biphenyl]-4-yl sulfamate] | 4.8 | 12.1
CSc1ccc(-c2cc(Cn3cnc4ccccc43)ccc2C#N)cc1OS(N)(=O)=O [Example 19, 5′-((1H-benzo[d]imidazol-1-yl)methyl)-2′-cyano-4-(methylthio)-[1,1′-biphenyl]-3-yl sulfamate] | 2.2 | > 60
N#Cc1ccc(Nn2cnc3ccccc32)cc1-c1ccc(OS(N)(=O)=O)cn1 [Example 41, 6-(5-(1H-Benzo[d]imidazol-1-ylamino)-2-cyanophenyl)pyridin-3-yl sulfamate] | 2 | 9.3
Cc1nc2ccccc2n1Cc1ccc(C#N)c(-c2ccc(OS(N)(=O)=O)cc2)c1 [Example 3, 2′-Cyano-5′-((2-methyl-1H-benzo[d]imidazol-1-yl)methyl)biphenyl-4-yl sulfamate] | > 60 | 18.9
CN(c1ncc(C#N)c(-c2ccc(OS(N)(=O)=O)cc2)n1)n1cnc2cccnc21 [Example 48, 4-(2-((3H-Imidazo[4,5-b]pyridin-3-yl)(methyl)amino)-5-cyanopyrimidin-4-yl)phenyl sulfamate] | 5.8 | > 60
N#Cc1ccc(Nn2nnc3cccnc32)cc1-c1ccc(OS(N)(=O)=O)cc1 [Example 35, 5′-(3H-[1,2,3]Triazolo[4,5-b]pyridin-3-ylamino)-2′-cyano-[1,1′-biphenyl]-4-yl sulfamate] | 5.1 | 29.4
N#Cc1cnc(Nn2cnc3cccnc32)nc1-c1ccc(OS(N)(=O)=O)cc1 [Example 47, 4-(2-(3H-Imidazo[4,5-b]pyridin-3-ylamino)-5-cyanopyrimidin-4-yl)phenyl sulfamate] | 56.1 | 44.1
N#Cc1cnc(Cn2cnc3cc(F)c(F)cc32)nc1-c1ccc(OS(N)(=O)=O)cc1 [Example 52, 4-(5-Cyano-2-((5,6-difluoro-1H-benzo[d]imidazol-1-yl)methyl)pyrimidin-4-yl)phenyl sulfamate] | 2.9 | 5.4

Second part, the molecule after the results:

IC50 (aromatase) [nM] | IC50 (steroid sulfatase) [nM] | SMILES
8.4 | 35.7 | CN(c1cnc(C#N)c(-c2ccc(OS(N)(=O)=O)cc2)n1)n1cnc2ccccc21 [Example 34, 4-(6-((1H-Benzo[d]imidazol-1-yl)(methyl)amino)-3-cyanopyrazin-2-yl)phenyl sulfamate]
1.2 | 2 | N#Cc1ccc(Cn2cnc3ccccc32)cc1-c1ccc(OS(N)(=O)=O)cc1 [Example 1, 5′-((1H-Benzo[d]imidazol-1-yl)methyl)-2′-cyano-[1,1′-biphenyl]-4-yl sulfamate]
3.2 | 25.6 | CN(c1ccc(C#N)c(-c2ccc(OS(N)(=O)=O)cc2)c1)n1cnc2ccccc21 [Example 5, 5′-((1H-Benzo[d]imidazol-1-yl)(methyl)amino)-2′-cyano-[1,1′-biphenyl]-4-yl sulfamate]
16.3 | > 60 | N#Cc1ncc(Cn2cnc3cccnc32)cc1-c1ccc(OS(N)(=O)=O)cc1 [Example 50, 4-(5-((3H-imidazo[4,5-b]pyridin-3-yl)methyl)-2-cyanopyridin-3-yl)phenyl sulfamate]
2.7 | 19.1 | N#Cc1ncc(Nn2cnc3ccccc32)cc1-c1ccc(OS(N)(=O)=O)cc1 [Example 38, 4-(5-(1H-Benzo[d]imidazol-1-ylamino)-2-cyanopyridin-3-yl)phenyl sulfamate]
2.1 | > 60 | CN(c1cnc(C#N)c(-c2ccc(OS(N)(=O)=O)cc2)c1)n1cnc2cccnc21 [Example 45, 4-(5-((3H-Imidazo[4,5-b]pyridin-3-yl)(methyl)amino)-2-cyanopyridin-3-yl)phenyl sulfamate]
11.8 | > 60 | N#Cc1ncc(Nn2cnc3cccnc32)cc1-c1ccc(OS(N)(=O)=O)cc1 [Example 43, 4-(5-(3H-Imidazo[4,5-b]pyridin-3-ylamino)-2-cyanopyridin-3-yl)phenyl sulfamate]
5.8 | > 60 | CN(c1cnc(C#N)c(-c2ccc(OS(N)(=O)=O)cc2)n1)n1cnc2cccnc21 [Example 44, 4-(6-((3H-Imidazo[4,5-b]pyridin-3-yl)(methyl)amino)-3-cyanopyrazin-2-yl)phenyl sulfamate]
3.7 | > 60 | CN(c1ccc(C#N)c(-c2ccc(OS(N)(=O)=O)cc2)n1)n1cnc2cccnc21 [Example 49, 4-(6-((3H-Imidazo[4,5-b]pyridin-3-yl)(methyl)amino)-3-cyanopyridin-2-yl)phenyl sulfamate]
2.5 | 37.6 | CN(c1cc(-c2ccc(OS(N)(=O)=O)cc2)c(C#N)cn1)n1cnc2ccccc21 [Example 29, 4-(2-((1H-Benzo[d]imidazol-1-yl)(methyl)amino)-5-cyanopyridin-4-yl)phenyl sulfamate]
2 | 6.8 | N#Cc1ccc(Nn2cnc3ccccc32)cc1-c1ccc(OS(N)(=O)=O)cc1 [Example 2, 5′-(1H-Benzo[d]imidazol-1-ylamino)-2′-cyano-[1,1′-biphenyl]-4-yl sulfamate]
5.8 | > 60 | CSc1ccc(-c2cc(N(C)n3cnc4ccccc43)ccc2C#N)cc1OS(N)(=O)=O [Example 28, 5′-((1H-Benzo[d]imidazol-1-yl)(methyl)amino)-2′-cyano-4-(methylthio)-[1,1′-biphenyl]-3-yl sulfamate]
1.5 | > 60 | CN(c1cnc(C#N)c(-c2ccc(OS(N)(=O)=O)cc2)c1)n1cnc2ccccc21 [Example 39, 4-(5-((1H-Benzo[d]imidazol-1-yl)(methyl)amino)-2-cyanopyridin-3-yl)phenyl sulfamate]
4.6 | 17.8 | CSc1cc(-c2cc(N(C)n3cnc4ccccc43)ccc2C#N)ccc1OS(N)(=O)=O [Example 27, 5′-((1H-Benzo[d]imidazol-1-yl)(methyl)amino)-2′-cyano-3-(methylthio)-[1,1′-biphenyl]-4-yl sulfamate]
3.2 | 9.1 | N#Cc1ccc(Cn2cnc3ccccc32)nc1-c1ccc(OS(N)(=O)=O)cc1 [Example 10, 4-(6-((1H-Benzo[d]imidazol-1-yl)methyl)-3-cyanopyridin-2-yl)phenyl sulfamate]

From US9682941B2, “Substituted biphenyl analogues as dual inhibitors of aromatase and sulfatase” (ESTRYX PHARMA LIMITED, priority 2013, dated 2017)
